Measured values taken from PubChem BioAssay AID258 (DTP/NCI, 2004).
“And” between values parts separate entries of the source, which are not always exact repeats. Identical values can stand only once. Inconclusive results and toxic doses are left out.

Test system: CD2F1 mice, L1210 leukemia sc, survival T/C
Test: NCI In Vivo Anticancer Drug Screen. Data for tumor model L1210 Leukemia (subcutaneous) in CD2F1 (CDF1) mice
Conditions: endpoint: median survival time, higher = longer survival
Outline: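 Mice with transplanted tumor dosed; survival/tumor size read; T/C vs vehicle controls.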

[1] = dose: 40.0 mg/kg/injection, schedule: Q01DX009 (ip), vehicle: saline with Tween-80
[2] = dose: 240.0 mg/kg/injection, schedule: Q01DX009 (ip), vehicle: saline with Tween-80

SMILES: CN(Cc1cnc2nc(N)nc(N)c2n1)c1c(Cl)cc(C(=O)NC(CCC(=O)O)C(=O)O)cc1Br (stereo not given)
- T/C (dose: 17.0 mg/kg/injection, schedule: Q01DX Z (sc), vehicle: other): 294 % of control and 318 % of control
- T/C (dose: 28.0 mg/kg/injection, schedule: Q01DX Z (sc), vehicle: other): 356 % of control and 511 % of control
- T/C (dose: 46.0 mg/kg/injection, schedule: Q01DX Z (sc), vehicle: other): 350 % of control
- T/C (dose: 47.0 mg/kg/injection, schedule: Q01DX Z (sc), vehicle: other): 838 % of control
- T/C (dose: 47.1 mg/kg/injection, schedule: Q01DX Z (oral), vehicle: other): 200 % of control
- T/C (dose: 76.0 mg/kg/injection, schedule: Q01DX Z (sc), vehicle: other): 262 % of control
- T/C (dose: 78.0 mg/kg/injection, schedule: Q01DX Z (sc), vehicle: other): 250 % of control
- T/C (dose: 78.1 mg/kg/injection, schedule: Q01DX Z (oral), vehicle: other): 183 % of control
- T/C (dose: 126.0 mg/kg/injection, schedule: Q01DX Z (sc), vehicle: other): 193 % of control
- T/C (dose: 130.0 mg/kg/injection, schedule: Q01DX Z (sc), vehicle: other): 172 % of control
- T/C (dose: 130.1 mg/kg/injection, schedule: Q01DX Z (oral), vehicle: other): 172 % of control
- T/C (dose: 216.0 mg/kg/injection, schedule: Q01DX Z (sc), vehicle: other): 150 % of control
- T/C (dose: 216.1 mg/kg/injection, schedule: Q01DX Z (oral), vehicle: other): 166 % of control
- T/C (dose: 360.0 mg/kg/injection, schedule: Q01DX Z (sc), vehicle: other): 155 % of control
- T/C (dose: 360.1 mg/kg/injection, schedule: Q01DX Z (oral), vehicle: other): 161 % of control

SMILES: C[C@]12C[C@H](O)[C@H]3[C@@H](CCC4=CC(=O)CC[C@@]43C)[C@@H]1CC[C@@H]2C(=O)CO
- T/C (dose: 180.0 mg/kg/injection, schedule: Q01DX Z (sc), vehicle: methylcellulose (MC)): 100 % of control

SMILES: CN1CCN(CN2C(=O)C3C4C=CC(C3C2=O)C2C3C(=O)N(CN5CCN(C)CC5)C(=O)C3C42)CC1 (stereo not given)
- T/C (dose: 21.6 mg/kg/injection, schedule: Q01DX009 (ip), vehicle: water): 106 % of control
- T/C (dose: 24.8 mg/kg/injection, schedule: Q01DX009 (ip), vehicle: water): 118 % of control
- T/C (dose: 36.0 mg/kg/injection, schedule: Q01DX009 (ip), vehicle: water): 113 % of control
- T/C (dose: 41.3 mg/kg/injection, schedule: Q01DX009 (ip), vehicle: water): 150 % of control
- T/C (dose: 60.0 mg/kg/injection, schedule: Q01DX009 (ip), vehicle: water): 170 % of control
- T/C (dose: 68.8 mg/kg/injection, schedule: Q01DX009 (ip), vehicle: water): 174 % of control
- T/C (dose: 100.0 mg/kg/injection, schedule: Q01DX009 (ip), vehicle: water): 243 % of control
- T/C (dose: 114.7 mg/kg/injection, schedule: Q01DX009 (ip), vehicle: water): 235 % of control

SMILES: CN(C)c1nc(N(C)C)nc(N(C)C)n1
- T/C (dose: 19.0 mg/kg/injection, schedule: Q01DX009 (ip), vehicle: saline with Tween-80): 97 % of control
- T/C (dose: 20.0 mg/kg/injection, schedule: Q01DX009 (ip), vehicle: saline with Tween-80): 106 % of control
- T/C (dose: 20.0 mg/kg/injection, schedule: Q01DX009 (sc), vehicle: saline): 107 % of control
- T/C (dose: 37.5 mg/kg/injection, schedule: Q01DX009 (ip), vehicle: saline with Tween-80): 91 % of control
- T/C [1]: 102 % of control
- T/C (dose: 40.0 mg/kg/injection, schedule: Q01DX009 (sc), vehicle: saline): 100 % of control
- T/C (dose: 75.0 mg/kg/injection, schedule: Q01DX009 (ip), vehicle: saline with Tween-80): 104 % of control
- T/C (dose: 80.0 mg/kg/injection, schedule: Q01DX009 (ip), vehicle: saline with Tween-80): 106 % of control
- T/C (dose: 80.0 mg/kg/injection, schedule: Q01DX009 (sc), vehicle: saline): 100 % of control
- T/C (dose: 150.0 mg/kg/injection, schedule: Q01DX009 (ip), vehicle: saline with Tween-80): 91 % of control
- T/C (dose: 160.0 mg/kg/injection, schedule: Q01DX009 (ip), vehicle: saline with Tween-80): 109 % of control and 110 % of control
- T/C (dose: 160.0 mg/kg/injection, schedule: Q01DX009 (sc), vehicle: saline): 113 % of control
- T/C [2]: 90 % of control

SMILES: CC(CN1CC(=O)NC(=O)C1)N1CC(=O)NC(=O)C1 (stereo not given)
- T/C (dose: 1.25 mg/kg/injection, schedule: Q01DX009 (ip), vehicle: saline with Tween-80): 119 % of control
- T/C (dose: 1.88 mg/kg/injection, schedule: Q01DX009 (sc), vehicle: saline with Tween-80): 113 % of control
- T/C (dose: 2.5 mg/kg/injection, schedule: Q01DX009 (ip), vehicle: saline with Tween-80): 114 % of control
- T/C (dose: 15.0 mg/kg/injection, schedule: Q01DX009 (ip), vehicle: saline with Tween-80): 159 % of control
- T/C (dose: 15.0 mg/kg/injection, schedule: Q01DX009 (sc), vehicle: saline with Tween-80): 178 % of control
- T/C (dose: 15.0 mg/kg/injection, schedule: Q01DX009 (sc), vehicle: saline): 124 % of control
- T/C (dose: 20.0 mg/kg/injection, schedule: Q01DX009 (sc), vehicle: saline with Tween-80): 156 % of control
- T/C (dose: 30.0 mg/kg/injection, schedule: Q01DX009 (ip), vehicle: saline with Tween-80): 178 % of control
- T/C (dose: 35.0 mg/kg/injection, schedule: Q01DX009 (sc), vehicle: saline with Tween-80): 191 % of control
- T/C [1]: 165 % of control
- T/C (dose: 40.0 mg/kg/injection, schedule: Q01DX009 (sc), vehicle: saline with Tween-80): 186 % of control
- T/C (dose: 45.0 mg/kg/injection, schedule: Q01DX009 (sc), vehicle: saline with Tween-80): 190 % of control and 192 % of control
- T/C (dose: 50.0 mg/kg/injection, schedule: Q01DX009 (sc), vehicle: saline with Tween-80): 195 % of control
- T/C (dose: 60.0 mg/kg/injection, schedule: Q01DX009 (sc), vehicle: saline with Tween-80): 164 % of control
- T/C (dose: 90.0 mg/kg/injection, schedule: Q01DX009 (ip), vehicle: saline with Tween-80): 123 % of control
- T/C (dose: 100.0 mg/kg/injection, schedule: Q01DX009 (sc), vehicle: saline with Tween-80): 163 % of control
- T/C (dose: 108.0 mg/kg/injection, schedule: Q04DX003 (sc), vehicle: Klucel (hydroxypropylcellulose) (HPC)): 119 % of control and 122 % of control
- T/C (dose: 120.0 mg/kg/injection, schedule: Q01DX009 (ip), vehicle: saline with Tween-80): 158 % of control
- T/C (dose: 120.0 mg/kg/injection, schedule: Q01DX009 (sc), vehicle: saline): 157 % of control
- T/C (dose: 180.0 mg/kg/injection, schedule: Q04DX003 (sc), vehicle: Klucel (hydroxypropylcellulose) (HPC)): 122 % of control
- T/C [2]: 97 % of control
- T/C (dose: 240.0 mg/kg/injection, schedule: Q01DX009 (sc), vehicle: saline with Tween-80): 86 % of control
- T/C (dose: 300.0 mg/kg/injection, schedule: Q04DX003 (sc), vehicle: Klucel (hydroxypropylcellulose) (HPC)): 153 % of control
- T/C (dose: 833.0 mg/kg/injection, schedule: Q04DX003 (sc), vehicle: Klucel (hydroxypropylcellulose) (HPC)): 111 % of control and 112 % of control

SMILES: Nc1ncn(C2OC(CO)C(O)C2O)c(=O)n1 (stereo not given)
- T/C (dose: 0.2 mg/kg/injection, schedule: Q01DX009 (ip), vehicle: saline): 97 % of control
- T/C (dose: 0.2 mg/kg/injection, schedule: Q01DX009 (sc), vehicle: saline): 102 % of control
- T/C (dose: 0.4 mg/kg/injection, schedule: Q01DX009 (ip), vehicle: saline): 113 % of control
- T/C (dose: 0.4 mg/kg/injection, schedule: Q01DX009 (sc), vehicle: saline): 115 % of control and 119 % of control
- T/C (dose: 0.8 mg/kg/injection, schedule: Q01DX009 (sc), vehicle: saline): 120 % of control
- T/C (dose: 1.07 mg/kg/injection, schedule: Q01DX009 (sc), vehicle: saline): 158 % of control
- T/C (dose: 1.6 mg/kg/injection, schedule: Q01DX009 (ip), vehicle: saline): 150 % of control
- T/C (dose: 2.1 mg/kg/injection, schedule: Q01DX009 (ip), vehicle: saline): 178 % of control
- T/C (dose: 2.1 mg/kg/injection, schedule: Q01DX009 (sc), vehicle: saline): 187 % of control
- T/C (dose: 7.2 mg/kg/injection, schedule: Q01DX009 (ip), vehicle: saline): 206 % of control and 88 % of control
- T/C (dose: 9.6 mg/kg/injection, schedule: Q01DX009 (ip), vehicle: saline): 113 % of control
- T/C (dose: 28.8 mg/kg/injection, schedule: Q01DX009 (sc), vehicle: saline): 106 % of control

SMILES: O=c1cnn(C2OC(CO)C(O)C2O)c(=O)[nH]1 (stereo not given)
- T/C (dose: 37.5 mg/kg/injection, schedule: Q01DX009 (ip), vehicle: saline): 113 % of control
- T/C (dose: 75.0 mg/kg/injection, schedule: Q01DX009 (ip), vehicle: saline): 120 % of control
- T/C (dose: 250.0 mg/kg/injection, schedule: Q01DX Z (sc), vehicle: saline): 111 % of control
- T/C (dose: 500.0 mg/kg/injection, schedule: Q01DX Z (sc), vehicle: saline): 116 % of control
- T/C (dose: 1000.0 mg/kg/injection, schedule: Q01DX Z (sc), vehicle: saline): 111 % of control
- T/C (dose: 1200.0 mg/kg/injection, schedule: Q01DX009 (ip), vehicle: saline): 103 % of control
- T/C (dose: 1200.0 mg/kg/injection, schedule: Q01DX009 (sc), vehicle: saline): 107 % of control
